Source: patent US7615366B2, “Bacillus amyloliquefaciens KTGB0202 and control method of plant pathogenic fungi using that” (KT & G Co., Ltd., priority 2003, dated 2009)

Legend:
melon powdery mildew = assay: Control effect against melon powdery mildew; conditions: 4000-fold-diluted concentration (control chemicals)
Text: The bacteria culture was spread to melons with a powdery mildew incidence of about 10% under greenhouse conditions three times at one-week intervals, and after 7 days, the results were examined.
Trifumin® and Fenari® (Fenarimol) were used at a 4000-fold-diluted concentration, a recommended concentration for farmhouses.
The number of leaves with melon powdery mildew was counted before and after treatment so as to yield therapeutic effects.

cucumber powdery mildew = assay: Control effect against cucumber powdery mildew; conditions: 4000-fold-diluted concentration (control chemical)
Text: Also, Trifumin® (Triflumizole) was used at a 4000-fold-diluted concentration, a recommended concentration for farmhouses.

| Structure (SMILES) | Number of infected leaves before treatment/number of infected leaves after treatment (melon powdery mildew) | Therapeutic effect (melon powdery mildew) | Control effect (%) (cucumber powdery mildew) | Incidence (%) (cucumber powdery mildew) |
| --- | --- | --- | --- | --- |
| OC(c1ccc(Cl)cc1)(c1cncnc1)c1ccccc1Cl (stereo not drawn) [Fenari ® (Fenarimol), Fenarimol] | 9/6 | 33.4 | – | – |
| CCCOC/C(=N\c1ccc(Cl)cc1C(F)(F)F)n1ccnc1 [Trifumin ® (Triflumizole), Triflumizole] | 10/0 | 100 | 96.59 | 3.41 |
